Experimental data from the NIST ThermoML archive (doi:10.1021/acs.jced.8b00070).
Numbers after ± are expanded uncertainties.

Details: 101.3 kPa, Liquid, Vibrating tube method

mass density (323.15 K): 988 ± 0.2 kg/m3
mass density (328.15 K): 985.7 ± 0.2 kg/m3
mass density (333.15 K): 983.2 ± 0.2 kg/m3
SMILES: O [water]
